Test results reported in ChEMBL document CHEMBL1201862, “PubChem BioAssay data set” (2004).
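Values below derive from 48-hour exposures of cells grown in 96-well plates, with endpoints linearly interpolated between the two concentrations bracketing the appropriate inhibition level. GI50: concentration for 50% inhibition of growth.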 The source made the active and inactive calls. Cut-off read from the data, not from the text of the source: active = GI50 up to about 1.1 µM and inactive = higher.

Tests used:
Assay in all cases: growth of human tumour cells (NCI), 48 h
OVCAR-8 = system: OVCAR-8
MCF7 = system: MCF7
SF-295 = system: SF-295
MDA-MB-435 = system: MDA-MB-435
HCT-15 = system: HCT-15
HCT-116 = system: HCT-116
A498 = system: A498
SNB-19 = system: SNB-19
SK-MEL-5 = system: SK-MEL-5
PC-3 = system: PC-3
DU-145 = system: DU-145
OVCAR-3 = system: OVCAR-3
Hs-578T = system: Hs-578T
786-0 = system: 786-0
SK-MEL-2 = system: SK-MEL-2
HCC 2998 = system: HCC 2998
NCI-H226 = system: NCI-H226
RPMI-8226 = system: RPMI-8226
MOLT-4 = system: MOLT-4
CCRF-CEM = system: CCRF-CEM

Row | SMILES | GI50 (OVCAR-8) | GI50 (MCF7) | GI50 (SF-295) | GI50 (MDA-MB-435) | GI50 (HCT-15) [µM] | GI50 (HCT-116) | GI50 (A498) | GI50 (SNB-19) | GI50 (SK-MEL-5) | GI50 (PC-3) | GI50 (DU-145) | GI50 (OVCAR-3) | GI50 (Hs-578T) | GI50 (786-0) | GI50 (SK-MEL-2) | GI50 (HCC 2998) | GI50 (NCI-H226) | GI50 (RPMI-8226) | GI50 (MOLT-4) | GI50 (CCRF-CEM)
1 | N#CCCC1(CCC#N)CCCCCCC(CCC#N)(CCC#N)C(=O)C1=O | > 100 µM (inactive) | 70.5 µM (inactive) | > 100 µM (inactive) | > 100 µM (inactive) | > 100 | > 100 µM (inactive) | 50 µM (inactive) | > 100 µM (inactive) | > 100 µM (inactive) | > 100 µM (inactive) | > 100 µM (inactive) | > 100 µM (inactive) | > 100 µM (inactive) | > 100 µM (inactive) | > 100 µM (inactive) | 67.1 µM (inactive) | – | – | – | –
2 | CO/N=C1/C(n2[nH]c(=O)n(-c3ccccc3)c2=O)C2C=CC1n1c(=O)n(-c3ccccc3)c(=O)n12 (configuration not stated) | > 100 µM (inactive) | > 100 µM (inactive) | – | > 100 µM (inactive) | > 100 | > 100 µM (inactive) | > 100 µM (inactive) | > 100 µM (inactive) | > 100 µM (inactive) | > 100 µM (inactive) | > 100 µM (inactive) | > 100 µM (inactive) | > 100 µM (inactive) | > 100 µM (inactive) | > 100 µM (inactive) | > 100 µM (inactive) | > 100 µM (inactive) | > 100 µM (inactive) | > 100 µM (inactive) | > 100 µM (inactive)
3 | Clc1ccc(Cl)c(SCCCN2CCNCC2)c1 | 20.3 µM (inactive) | 18.4 µM (inactive) | 17.8 µM (inactive) | 14 µM (inactive) | 18.7 | 18.3 µM (inactive) | 13.7 µM (inactive) | 16.9 µM (inactive) | 15.2 µM (inactive) | 14.6 µM (inactive) | 15.8 µM (inactive) | 19.2 µM (inactive) | 16.1 µM (inactive) | 20.1 µM (inactive) | – | 3.61 µM (inactive) | 18.3 µM (inactive) | 19.8 µM (inactive) | 17.1 µM (inactive) | 19.9 µM (inactive)
4 | COC(=O)[C@]1(C)CCC[C@@]2(C)C1CC[C@]13C=C(C(C)C)[C@H](CC21)CC3(Cl)C#N (some centres not stated) | 45.9 µM (inactive) | 27.4 µM (inactive) | 41.4 µM (inactive) | 42.6 µM (inactive) | 44.7 | 14.9 µM (inactive) | > 100 µM (inactive) | > 100 µM (inactive) | 37.8 µM (inactive) | 18.9 µM (inactive) | 43.5 µM (inactive) | 35 µM (inactive) | > 100 µM (inactive) | > 100 µM (inactive) | – | 29.8 µM (inactive) | 22.8 µM (inactive) | – | 20 µM (inactive) | 20.7 µM (inactive)
5 | COc1ncc(/C=C2\OC(=O)c3ccccc32)c(OC)n1 | 8.13 µM (inactive) | 25.8 µM (inactive) | 4.19 µM (inactive) | 77.8 µM (inactive) | 65.2 | > 100 µM (inactive) | 12.3 µM (inactive) | 26.5 µM (inactive) | 9.95 µM (inactive) | 39 µM (inactive) | 88.9 µM (inactive) | 24.9 µM (inactive) | 10.1 µM (inactive) | 9.1 µM (inactive) | – | 76 µM (inactive) | 66.1 µM (inactive) | 5.94 µM (inactive) | 41 µM (inactive) | 39.1 µM (inactive)
6 | Cc1cn(CC(=S)NCCc2c[nH]c3ccccc23)c(=O)[nH]c1=O | – | 63.7 µM (inactive) | – | 74.5 µM (inactive) | > 100 | 76.7 µM (inactive) | 60.1 µM (inactive) | > 100 µM (inactive) | 35.5 µM (inactive) | 77.1 µM (inactive) | > 100 µM (inactive) | > 100 µM (inactive) | 84.1 µM (inactive) | > 100 µM (inactive) | > 100 µM (inactive) | – | 33.5 µM (inactive) | 46.5 µM (inactive) | 12.8 µM (inactive) | 44.3 µM (inactive)
7 | O=C1CCCCN1C(=O)c1ccc([N+](=O)[O-])cc1 | > 100 µM (inactive) | > 100 µM (inactive) | > 100 µM (inactive) | > 100 µM (inactive) | > 100 | > 100 µM (inactive) | > 100 µM (inactive) | > 100 µM (inactive) | > 100 µM (inactive) | 44.3 µM (inactive) | > 100 µM (inactive) | > 100 µM (inactive) | > 100 µM (inactive) | > 100 µM (inactive) | – | > 100 µM (inactive) | > 100 µM (inactive) | > 100 µM (inactive) | > 100 µM (inactive) | > 100 µM (inactive)
8 | O=C1c2ccccc2C2(c3ccc(Cl)cc3)NCc3ccccc3CN12 (configuration not stated) | 23.1 µM (inactive) | 17.4 µM (inactive) | 18.3 µM (inactive) | 26.7 µM (inactive) | 21.9 | 10.8 µM (inactive) | 19.4 µM (inactive) | 17 µM (inactive) | 16 µM (inactive) | 16.1 µM (inactive) | 21.3 µM (inactive) | 13.4 µM (inactive) | 22.5 µM (inactive) | 13.6 µM (inactive) | 13.7 µM (inactive) | 20.4 µM (inactive) | – | 21.8 µM (inactive) | 24.8 µM (inactive) | 25.9 µM (inactive)
9 | CC1=NN(c2cccc(Cl)c2)C(=N/c2nc3ccccc3s2)/C1=C\c1cccs1 | 48.3 µM (inactive) | 33.9 µM (inactive) | 25.3 µM (inactive) | 55.6 µM (inactive) | 32.8 | 44.8 µM (inactive) | 28.8 µM (inactive) | – | 28.1 µM (inactive) | 32.1 µM (inactive) | 44.4 µM (inactive) | 13 µM (inactive) | 26.1 µM (inactive) | 87.3 µM (inactive) | 25.9 µM (inactive) | 35 µM (inactive) | 36.4 µM (inactive) | 13.4 µM (inactive) | 26.8 µM (inactive) | 19.6 µM (inactive)
10 | Clc1cccc(Cl)c1C1SCC2=Nc3ccccc3CN21 (configuration not stated) | – | 20.2 µM (inactive) | 13.2 µM (inactive) | 27.2 µM (inactive) | 32 | 12.1 µM (inactive) | 71.8 µM (inactive) | 5.18 µM (inactive) | 15.8 µM (inactive) | 18.7 µM (inactive) | 25 µM (inactive) | 15 µM (inactive) | 24.8 µM (inactive) | 13.2 µM (inactive) | – | 29.6 µM (inactive) | – | 17.1 µM (inactive) | 31.3 µM (inactive) | 32.4 µM (inactive)
11 | Nc1ncc(C=O)c(NCC2(CO)CCC2)n1 | 51.1 µM (inactive) | 23.9 µM (inactive) | 36.8 µM (inactive) | 44.9 µM (inactive) | 71.1 | 36.6 µM (inactive) | 26.3 µM (inactive) | – | 19.9 µM (inactive) | 82.4 µM (inactive) | 33 µM (inactive) | 50.6 µM (inactive) | 41.1 µM (inactive) | > 100 µM (inactive) | 19.3 µM (inactive) | > 100 µM (inactive) | 27.7 µM (inactive) | 8.04 µM (inactive) | 30.5 µM (inactive) | 38.4 µM (inactive)
12 | CCNCC(O)c1ccc(N)c([N+](=O)[O-])c1 (configuration not stated) | > 100 µM (inactive) | > 100 µM (inactive) | > 100 µM (inactive) | > 100 µM (inactive) | > 100 | > 100 µM (inactive) | > 100 µM (inactive) | > 100 µM (inactive) | > 100 µM (inactive) | > 100 µM (inactive) | > 100 µM (inactive) | > 100 µM (inactive) | > 100 µM (inactive) | > 100 µM (inactive) | > 100 µM (inactive) | – | > 100 µM (inactive) | > 100 µM (inactive) | > 100 µM (inactive) | > 100 µM (inactive)
13 | O=C1/C(=C/c2ccc(O)cc2)NC(=S)N1CN1CCCCC1 | 53.5 µM (inactive) | 21.3 µM (inactive) | 89.7 µM (inactive) | 70.3 µM (inactive) | 31.8 | 45.8 µM (inactive) | 96.6 µM (inactive) | 89.5 µM (inactive) | 27.4 µM (inactive) | 53.2 µM (inactive) | 57.1 µM (inactive) | > 100 µM (inactive) | 85.5 µM (inactive) | 62.2 µM (inactive) | > 100 µM (inactive) | – | 78.3 µM (inactive) | 28.6 µM (inactive) | 62.7 µM (inactive) | 23.8 µM (inactive)
14 | CC1(C)CC(=O)c2c(nc3ccc4ccccc4c3c2-c2ccc(NC(=O)CCCCCCCCC(=O)Nc3ccc(-c4c5c(nc6ccc7ccccc7c46)CC(C)(C)CC5=O)cc3)cc2)C1 | > 100 µM (inactive) | > 100 µM (inactive) | > 100 µM (inactive) | > 100 µM (inactive) | > 100 | > 100 µM (inactive) | > 100 µM (inactive) | > 100 µM (inactive) | > 100 µM (inactive) | > 100 µM (inactive) | > 100 µM (inactive) | > 100 µM (inactive) | > 100 µM (inactive) | > 100 µM (inactive) | > 100 µM (inactive) | – | > 100 µM (inactive) | > 100 µM (inactive) | > 100 µM (inactive) | > 100 µM (inactive)
15 | CN(C)CCCNC(=O)c1c(O)c2ccccc2n(C)c1=O | 49.4 µM (inactive) | 43.9 µM (inactive) | 48.5 µM (inactive) | 61.8 µM (inactive) | 51.1 | 44.1 µM (inactive) | > 100 µM (inactive) | – | 53.7 µM (inactive) | 67.6 µM (inactive) | > 100 µM (inactive) | > 100 µM (inactive) | > 100 µM (inactive) | 65.3 µM (inactive) | 64.1 µM (inactive) | 82.2 µM (inactive) | 67 µM (inactive) | 73.8 µM (inactive) | 44.5 µM (inactive) | 43.1 µM (inactive)
